Experimental data taken from a melting point compilation (Tetko et al.; mined from patent text by program, amines drawn as free bases though some values may be those of a salt).

First: O=S1(=O)NC2CCCN2c2c(F)cc(O)cc21 (stereo not drawn)
Second: O=S1(=O)NCc2cccc(Cl)c21
The melting point of the first is higher: 167 to 169 °C for the first, 159 to 161 °C for the second.

First: COCC1CN(CCOc2ccc(NC(=O)Nc3cc(C(C)(C)C)nn3-c3ccc(C)cc3)c3ccccc23)CCO1 (stereo not drawn)
Second: COc1cc(CC(=O)Nc2ccc(C3CN(C(C)=O)CC3C(=O)O)cc2)ccc1NC(=O)Nc1ccccc1C (stereo not drawn)
The melting point of the first is lower: 85 to 90 °C for the first, 242 °C for the second.

First: C=CC(=O)NC(C)(C)CS(=O)(=O)OC
Second: COC(=O)C(C)Nc1c([N+](=O)[O-])cnn1-c1c(Cl)cc(C(F)(F)F)cc1Cl (stereo not drawn)
The melting point of the first is lower: 80.6 °C for the first, 123 to 130 °C for the second.

Compared with CC1CCC2(CC1)OCCN2C(=O)C(Cl)Cl (stereo not drawn), Nc1cccc2c1C1CC3(CCN1C2=O)OCCO3 (stereo not drawn) is lower in melting point: 119 to 120 °C for the first, 76 °C for the second.

Compared with COc1cc2c(cc1OC)C(C(c1ccccc1)N1CCCCC1)OC2=O (stereo not drawn), COc1ccc(CN2CCN(CCC(c3ccccc3)c3ccccc3)CC2)cc1OC is lower in melting point: 213 to 214 °C for the first, 98 to 104 °C for the second.

First: CCCCc1cn(Cc2ccc(-c3ccccc3C(=O)O)cc2)c2cc(C(=O)O)ccc2c1=O
Second: CCCc1nc2c(n1Cc1ccc(-c3ccccc3-c3nnn[nH]3)cc1)C(C(=O)OCC)N(C(C)=O)CC2 (stereo not drawn)
The melting point of the first is higher: > 260 °C for the first, 184 to 185 °C for the second.

Compared with COC(C)c1cccc2oc(C(=O)O)c(C)c12 (stereo not drawn), COC(=O)N(C)c1cccc(-c2ccc3nnc(C)n3n2)c1 is higher in melting point: 113 to 115 °C for the first, 164 to 166 °C for the second.

First: Nc1ccccc1N1CCN(CCCCn2c(=O)[nH]c(=O)c3ccccc32)CC1
Second: O=C1NCCc2ccc(OCCCCN3CCN(c4cccc5c4OCC5)CC3)nc2N1
The melting point of the first is higher: 121 °C for the first, 72 to 73 °C for the second.

Compared with O=C1CCC(c2ccc3[nH]c(-c4ccc(-n5ccnc5)cc4)cc3c2)=NN1, O=C(NO)c1ccc(CNC(=O)c2[nH]c(-c3ccc(O)cc3)cc2-c2ccoc2)cc1 is lower in melting point: 295 to 298 °C for the first, 122 to 123 °C for the second.

First: COc1cc(CNc2nc(C)nc(C)c2Cl)ccc1OCc1ccccc1
Second: COc1ccc(CNc2cc(F)cc(C#N)c2)cc1
The melting point of the first is higher: 101 to 105 °C for the first, 93 to 94 °C for the second.

Compared with Cc1cccc(NC2=NCCO2)c1C, CCOC(=O)c1c(C)nc2c(C(F)(F)F)cccc2c1O is higher in melting point: 112 to 114 °C for the first, 165 °C for the second.

First: CN1C(=O)CC[C@]2(C)c3ccc(-c4ccc(Cl)c(C(F)(F)F)c4)cc3CC[C@@H]12
Second: CS(=O)c1ccc(-c2cnn(CC(F)(F)F)c(=O)c2-c2ccc(Cl)cc2)cc1 (stereo not drawn)
The melting point of the first is lower: 134 to 137 °C for the first, 154 to 155 °C for the second.

First: CCCCCCCCCCCCCCCCSCC(O)COC(c1ccccc1)(c1ccccc1)c1ccccc1 (stereo not drawn)
Second: O=C(CCCCN1CCC(Cc2ccccc2)CC1)c1ccc2c(c1)Cc1cc(C(=O)CCCCN3CCC(Cc4ccccc4)CC3)ccc1-2
The melting point of the first is lower: 61 to 62 °C for the first, 147 to 149 °C for the second.

First: CC(C)(C)OC(=O)NCc1ccc(N2CC(C(=O)N3CCN(CCC(=O)OCc4ccccc4)CC3)OC2=O)cc1 (stereo not drawn)
Second: O=C(NC1CCN(Cc2ccccc2)CC1)c1n[nH]c2ccccc12
The melting point of the first is lower: 128 to 130 °C for the first, 198 to 200 °C for the second.

First: O=c1[nH]ccc2cc(S(=O)(=O)N3CCCNCC3)ccc12
Second: CS(=O)c1ccc(S(=O)(=O)N2CCCC(c3ccccc3)=N2)cc1 (stereo not drawn)
The melting point of the first is higher: 266 to 267 °C for the first, 137 to 139 °C for the second.

First: CCSc1nc2nsc(N)c2s1
Second: Cc1c(-c2cccc(C#N)c2F)sc2nc(N)[nH]c(=O)c12
The melting point of the first is lower: 131 to 134 °C for the first, 350 to 370 °C for the second.

Compared with Oc1cc(O)c2c(c1)Oc1cc(Br)ccc1CC2, O=C(c1ccccc1)c1ccc2c([N+](=O)[O-])c(O)c(O)cc2c1 is higher in melting point: 178 to 180 °C for the first, 196 to 205 °C for the second.

First: CN(C=O)C1C(O)CC2C3CCc4cc(O)ccc4C3CCC21C (stereo not drawn)
Second: CC12CCC3c4cc(O)c(O)cc4CCC3C1CCC2O (stereo not drawn)
The melting point of the first is higher: 272 to 276 °C for the first, 181 to 183 °C for the second.

First: O=c1c2cc(Oc3ccc(Cl)cc3)ccc2ncn1Cc1cccnc1
Second: CCc1[nH]n(-c2c(Cl)cc(Cl)cc2Cl)c2nc(Cc3cccnc3)nc(=O)c1-2
The melting point of the first is lower: 130 to 133 °C for the first, 257 to 260 °C for the second.

Compared with Cc1nc2c(O[Si](C)(C)C(C)(C)C(C)C)c(CC[C@@H](O)c3ccccc3)c(C(=O)N(C)C)cn2c1C, CCCC(C)(C)C(O)C(c1cccc(Cl)c1)n1cnc(C)c1 (stereo not drawn) is higher in melting point: 56 to 58 °C for the first, 121 to 122 °C for the second.

First: CCOC(=O)c1noc(C2CC2)c1C(=O)c1ccc(Br)cc1CSC
Second: CCc1cc(C(=O)c2ccccc2Cl)c(-n2c(CNC(=O)c3ccc(Cl)c(Cl)c3)nnc2C2CCCCC2)s1
The melting point of the first is lower: 42 to 43 °C for the first, 206 to 208 °C for the second.

First: CNC(=O)C(=O)c1ccccc1COc1ccccc1
Second: CCOC(=O)C(C1c2ccccc2Oc2ccccc21)[N+](=O)[O-] (stereo not drawn)
The melting point of the first is lower: 78 °C for the first, 89 to 91 °C for the second.

First: COc1ccc2[nH]c(CO)cc2c1C
Second: Cc1ccc2sc3cc(C(=O)O)ccc3c2c1
The melting point of the first is lower: 133 to 135 °C for the first, 290 to 291 °C for the second.

Compared with Cn1c(C(F)(F)F)cc(=O)n(-c2ccc3snc(C4OCCO4)c3c2)c1=O, CC1(c2oncc2C(=O)c2ccc(S(C)(=O)=O)cc2C(F)(F)F)CC1 is lower in melting point: 213 to 216 °C for the first, 141 to 142 °C for the second.

First: O=C(O)c1ccc(CN(C2CCCCC2O)S(=O)(=O)c2ccc(Cl)cc2)cc1 (stereo not drawn)
Second: CCCN(CCC)[C@@H]1CCc2cc(CNC(=O)c3ccc(Cl)cc3)ccc2C1
The melting point of the first is higher: 218 to 219 °C for the first, 141 to 142 °C for the second.

Compared with CCC1(C)CC(NC(=O)c2ccccc2)C(C)C(C)(CC)N1Cc1ccccc1 (stereo not drawn), CC(C)(C)SC1CN(C(=O)NCCN2C(=O)c3ccccc3C2=O)CC1NS(=O)(=O)c1ccc(Oc2ccccc2)cc1 (stereo not drawn) is lower in melting point: 173 to 176 °C for the first, 105 to 106 °C for the second.

First: CCc1nc2c(cnn2CC)c(NC2CCOCC2)c1CNC(=O)c1cc(C)cc(C(=O)NCc2ccc(C)c(-c3cccc(C=O)c3)c2)c1
Second: Cc1cccc(-c2[nH]c(C(C)C)nc2-c2cccc(-c3ccc(C(=O)NC4CCOCC4)cc3)c2)n1
The melting point of the first is lower: 117 to 120 °C for the first, 140 °C for the second.

First: CCN(CCN(C)C)c1ccc(-c2ccnc(Nc3cc(OC)c(OC)c(OC)c3)n2)cn1
Second: COc1cc(C=CC(=O)c2cc(OC)c(OC)c(OC)c2)cc([N+](=O)[O-])c1O
The melting point of the first is lower: 90 °C for the first, 123 to 125 °C for the second.

Compared with CS(=O)(=O)c1ccc(-c2cnn(-c3ccc(F)c(F)c3)c(=O)c2Cc2ccc(F)c(F)c2)cc1, Cc1cc(SCCc2ccc3sc(-c4ccc(C(F)(F)F)cc4)nc3c2)ccc1CCC(=O)O is lower in melting point: 177 to 179 °C for the first, 108 to 110 °C for the second.

Compared with CCCn1c(=O)n([C@@H]2CCN(CCCCN3C(=O)c4cc(Cl)ccc4S3(=O)=O)[C@@H](C#N)C2)c2ccccc21 (relative stereo), O=C(c1ccc(-c2ccc3c(c2)CCN(C2CCN(Cc4ccccc4)CC2)C3=O)cc1)N1CCCC1 is higher in melting point: 159 to 160 °C for the first, 197 to 198 °C for the second.

First: CCOC(=O)C(CC#N)(C(=O)OCC)c1ccc([N+](=O)[O-])cn1
Second: C[Si](C)(C)CCOC(=O)c1cccc(NC(=O)NCC(=O)O)c1
The melting point of the first is lower: 66 to 68 °C for the first, 173 °C for the second.

First: N#CC(CO)Cc1cc(O)c(O)c([N+](=O)[O-])c1 (stereo not drawn)
Second: N#Cc1cc(C(=O)O)cc(O)c1O
The melting point of the first is lower: 149 to 152 °C for the first, 269 to 271 °C for the second.

First: Cc1cc(NC(=O)C(C)(O)COc2ccccc2F)ccc1[N+](=O)[O-] (stereo not drawn)
Second: Cc1ccc(-c2ccccc2C(=O)NC(C)C#N)cc1 (stereo not drawn)
The melting point of the first is lower: 94 to 96 °C for the first, 102 to 104 °C for the second.

First: CC(C)=CCCC(C)CCS(=O)c1nc2ccccc2[nH]1 (single isomer, unassigned; (+))
Second: CC(C)C1(C)NC(c2ccc(C=O)cn2)=NC1=O (stereo not drawn)
The melting point of the first is higher: 122 to 124 °C for the first, 106 to 108 °C for the second.

Compared with CCn1cc(C)c(=S)[nH]c1=O, CCOC(=O)C=Cc1ccc(Cl)c(Cl)c1 is lower in melting point: 205 to 206 °C for the first, 56 °C for the second.

First: CC(C)Oc1cc(NC(=O)CC(CCCl)C(F)(F)F)c(F)cc1Cl (stereo not drawn)
Second: O=C(O)Cn1c(=O)c(=O)[nH]c2cc(Cl)c(Cl)cc21
The melting point of the first is lower: 57 to 63 °C for the first, 317 to 319 °C for the second.

First: O=C(O)CC(NC(=O)C(Cl)Cl)C(=O)O (stereo not drawn)
Second: CCCc1c(OCC(O)CS(=O)(=O)c2ccc(C(=O)CCC(=O)O)cc2F)ccc(C(C)=O)c1O (stereo not drawn)
The melting point of the first is higher: 165 to 168 °C for the first, 96 to 99 °C for the second.

Compared with COc1ccc(-c2nc3cc(Cl)cc(C#CCN(O)C(=O)OC(C)(C)C)c3o2)cc1OC1CCCC1, NS(=O)(=O)Oc1ccc2cc(C3CCCCC3)sc2c1 is lower in melting point: 157 to 161 °C for the first, 128 °C for the second.

First: O=C(Oc1ccccc1)OC1C2=C(OCCS2)C(=O)N1c1ccc2ccc(Cl)nc2n1 (stereo not drawn)
Second: O=C(CC1c2ccccc2C(=O)N1c1ccccc1)N1CCCCC1 (stereo not drawn)
The melting point of the first is higher: 270 °C for the first, 122 to 123 °C for the second.

First: COCc1cc([N+](=O)[O-])c(Cl)cc1C#N
Second: Cc1cc([N+](=O)[O-])c(NC(C)C(=O)O)c([N+](=O)[O-])c1 (stereo not drawn)
The melting point of the first is lower: 57 to 59 °C for the first, 158 to 161 °C for the second.

Compared with CCCCCCN(CCCCCC)c1ccc(C=CC2=C(C#N)C(=C(C#N)C#N)OC2(C)C)s1, CCCCCn1c(C#N)ccc1-c1ccc2c(c1)C(C)(C)OC(=O)N2 is lower in melting point: 172 °C for the first, 128 to 131 °C for the second.

Compared with Cc1nc(Br)c(S(C)(=O)=O)c(Br)n1, CC(=O)c1c(C)[nH]c(C2CCCC2)c1C is higher in melting point: 161 to 162 °C for the first, 162 to 164 °C for the second.

First: COC(=O)C(=O)Oc1c(F)c(F)c(F)c(F)c1F
Second: Cc1cc2sc3ncc(C(=O)Nc4nnn[nH]4)c(=O)n3c2cc1C
The melting point of the first is lower: 34 to 35 °C for the first, > 300 °C for the second.

First: Oc1ccc(-c2c(Br)ccc3sc4ccccc4c23)cc1
Second: O=Cc1c2ccccc2cc2ccc(Cl)cc12
The melting point of the first is higher: 185 to 186 °C for the first, 148 to 150 °C for the second.

First: Fc1cccc(F)c1CCNC(=S)Nc1ccccn1
Second: CCCC#Cc1cnc(-c2ccc(F)cc2)nc1
The melting point of the first is higher: 157 to 160 °C for the first, 51 °C for the second.

Compared with NC(c1ccco1)P(O)O (stereo not drawn), COc1cccc(Oc2nc(N)n3nc(-c4ccco4)nc3n2)c1 is higher in melting point: 221 °C for the first, 226 to 227 °C for the second.

First: CC(C)Nc1cc(Cl)nnc1NN
Second: Cc1ccc2c(c1)[C@H](Nc1nc(NC=O)nc(C(F)F)n1)[C@@H](C)C2
The melting point of the first is higher: 132 to 135 °C for the first, 66 °C for the second.

First: Cc1c(C(=O)N(CC(=O)O)c2ccc(N3CCC(O)CC3)c(C#N)c2)cnn1-c1ccc(F)cc1
Second: c1csc(C2NCCNCc3ccccc32)c1 (stereo not drawn)
The melting point of the first is higher: 155 to 158 °C for the first, 148 °C for the second.

Compared with C=CCN1C(=O)N(Cc2c(C)c(CN3C(=O)N(CC=C)C(=O)C3(C)C)c(C)c(CN3C(=O)N(CC=C)C(=O)C3(C)C)c2C)C(C)(C)C1=O, CC(C)(C)c1cc(Cn2cncn2)cc(C(C)(C)C)c1O is lower in melting point: 150 to 155 °C for the first, < 30 °C for the second.
